{"source": "patent US20020192827A1", "about": "“Novel vector for C. glabrata and the use thereof” (priority 2000, published 2002)", "test_system": "C. glabrata strain ATCC 200989", "assay": "geneticin resistance growth test on -Ura medium, uninduced and copper-induced", "format": "cell-based, Candida glabrata", "experimental": "C. C. glabrata strain with expression plasmid pFPG1 lacking or carrying the wildtype neomycin/kanamycin resistance gene (which confers resistance to the antibiotic geneticin), on -Ura media supplemented with 1 mg/ml geneticin.\nC. C. glabrata strain with expression plasmid pFPG2 lacking or carrying the wildtype neomycin/kanamycin resistance gene (which confers resistance to the antibiotic geneticin), on -Ura media supplemented with 1 mg/ml geneticin.\nThe neomycin/kanamycin resistance gene from Tn903 confers resistance of C. glabrata to the antibiotic G418, geneticin (Cormack and Falkow, 1999). The pFPG1-NEO plasmid and empty pFPG1 as a control were transformed into C. glabrata strain ATCC 200989 and tested for geneticin resistance under uninduced and induced conditions (FIG. 3C). […] In this case, induction of the MT-1 promoter in pFPG1 was not absolutely necessary to obtain adequate expression of the NEO gene.\nThe NEO pFPG2 plasmid and empty pFPG2 as a control were transformed into C. glabrata strain ATCC 200989 and tested for geneticin resistance on -Ura medium under uninduced and induced conditions (FIG. 6)."}
{"smiles": "CN[C@@H]1[C@@H](O)[C@@H](O[C@@H]2[C@@H](O)[C@H](O[C@H]3O[C@H]([C@@H](C)O)[C@@H](O)[C@H](O)[C@H]3N)[C@@H](N)C[C@H]2N)OC[C@]1(C)O", "note": "[geneticin]", "values": [{"measurement": "geneticin concentration required to suppress growth", "setting": "strain ATCC 200989 with empty pFPG1 plasmid", "result": "about 1 mg/ml"}, {"measurement": "geneticin concentration required to suppress growth", "setting": "strain ATCC 200989 with empty pFPG2 plasmid, -Ura medium", "result": "about 1 mg/ml"}]}
